This assay has as its system MV-4-11 cells. Briefly: Gene expression microarray analysis (Affymetrix PrimeView) and GSEA. Type of assay: cell-based, human. Also noted: RFU PODN (11730768_x_at) / Fold change /veh PODN (11730768_x_at) / RFU LINC00158 (11744669_a_at) / Fold change /veh LINC00158 (11744669_a_at) / RFU DUSP10 (11751237_a_at) / Fold change /veh DUSP10 (11751237_a_at) / RFU ID3 (11757404_x_at) / Fold change /veh ID3 (11757404_x_at) / RFU PLEKHG5 (11737974_s_at) / Fold change /veh PLEKHG5 (11737974_s_at) / RFU LRRC4B (11730491_at) / Fold change /veh LRRC4B (11730491_at) / RFU GIMAP4 (11747438_a_at) / Fold change /veh GIMAP4 (11747438_a_at) / RFU KRT8 (11758183_x_at) / Fold change /veh KRT8 (11758183_x_at) / RFU CNN1 (11734310_a_at) / Fold change /veh CNN1 (11734310_a_at) / RFU VPS37D (11726825_at) / Fold change /veh VPS37D (11726825_at) / RFU C10orf10 (11716522_x_at) / Fold change /veh C10orf10 (11716522_x_at) / RFU KIR2DL2 /// KIR2DL4 /// KIR2DL5A /// KIR2DL5B /// KIR2DS1 /// KIR2DS2 /// KIR2DS3 /// KIR2DS4 /// KIR3DL3 /// KIR3DL3 /// KIR3DS1 (11738374_at) / Fold change /veh KIR2DL2 /// KIR2DL4 /// KIR2DL5A /// KIR2DL5B /// KIR2DS1 /// KIR2DS2 /// KIR2DS3 /// KIR2DS4 /// KIR3DL3 /// KIR3DL3 /// KIR3DS1 (11738374_at) / RFU C1QL1 (11718748_at) / Fold change /veh C1QL1 (11718748_at) / RFU TMPRSS4 (11747572_a_at) / Fold change /veh TMPRSS4 (11747572_a_at) / RFU HAMP (11756126_x_at) / Fold change /veh HAMP (11756126_x_at) / RFU RNFT2 (11725882_a_at) / Fold change /veh RNFT2 (11725882_a_at) / RFU NR4A2 (11747474_a_at) / Fold change /veh NR4A2 (11747474_a_at) / RFU ABCC12 (11746883_a_at) / Fold change /veh ABCC12 (11746883_a_at) / RFU TMEM136 (11760407_x_at) / Fold change /veh TMEM136 (11760407_x_at) / RFU CLDN22 /// WWC2 (11732394_at) / Fold change /veh CLDN22 /// WWC2 (11732394_at) / RFU HLA-DPB1 (11760878_x_at) / Fold change /veh HLA-DPB1 (11760878_x_at) / RFU SPINT1 (11716480_a_at) / Fold change /veh SPINT1 (11716480_a_at) / RFU GAP43 (11754022_s_at) / Fold change /veh GAP43 (11754022_s_at) / RFU A4GNT (11735810_at) / Fold change /veh A4GNT (11735810_at) / RFU PRB3 (11715151_x_at) / Fold change /veh PRB3 (11715151_x_at) / RFU TUBB4B (11761932_at) / Fold change /veh TUBB4B (11761932_at) / RFU CAPN14 (11732068_a_at) / Fold change /veh CAPN14 (11732068_a_at) / RFU TMCC2 (11721928_a_at) / Fold change /veh TMCC2 (11721928_a_at) / RFU IRGQ (11745062_a_at) / Fold change /veh IRGQ (11745062_a_at) / RFU FAM174B (11720279_a_at) / Fold change /veh FAM174B (11720279_a_at) / RFU TMPRSS4 (11748680_a_at) / Fold change /veh TMPRSS4 (11748680_a_at) / RFU FAM212B (11763350_a_at) / Fold change /veh FAM212B (11763350_a_at) / RFU PLEKHG5 (11743358_a_at) / Fold change /veh PLEKHG5 (11743358_a_at) / RFU ZSCAN30 (11745921_a_at) / Fold change /veh ZSCAN30 (11745921_a_at) / RFU CMKLR1 (11741424_a_at) / Fold change /veh CMKLR1 (11741424_a_at) / RFU LOC101060620 /// MAPK8IP1 (11723275_at) / Fold change /veh LOC101060620 /// MAPK8IP1 (11723275_at) / RFU SPTSSB (11747773_x_at) / Fold change /veh SPTSSB (11747773_x_at) / RFU PRSS12 (11739890_at) / Fold change /veh PRSS12 (11739890_at) / RFU BIN1 (11741810_x_at) / Fold change /veh BIN1 (11741810_x_at) / RFU WNT11 (11732464_a_at) / Fold change /veh WNT11 (11732464_a_at) / RFU C10orf10 (11716521_a_at) / Fold change /veh C10orf10 (11716521_a_at) / RFU C5orf56 (11738089_at) / Fold change /veh C5orf56 (11738089_at) / RFU CYB561 (11721691_x_at) / Fold change /veh CYB561 (11721691_x_at) / RFU ANKRD19P (11752326_a_at) / Fold change /veh ANKRD19P (11752326_a_at) / RFU OR2T12 /// OR2T33 /// OR2T8 (11738714_s_at) / Fold change /veh OR2T12 /// OR2T33 /// OR2T8 (11738714_s_at) / RFU VCAN (11748164_a_at) / Fold change /veh VCAN (11748164_a_at) / RFU JSRP1 (11732532_at) / Fold change /veh JSRP1 (11732532_at) / RFU KRTAP10-11 (11738290_x_at) / Fold change /veh KRTAP10-11 (11738290_x_at) / RFU MYO3A (11730013_a_at) / Fold change /veh MYO3A (11730013_a_at) / RFU EBF3 (11725865_a_at) / Fold change /veh EBF3 (11725865_a_at) / RFU CAMK2N1 (11719241_x_at) / Fold change /veh CAMK2N1 (11719241_x_at) / RFU C5orf56 (11738088_a_at) / Fold change /veh C5orf56 (11738088_a_at) / RFU OLFML3 (11715873_a_at) / Fold change /veh OLFML3 (11715873_a_at) / RFU LOC100653217 /// NTM (11731650_a_at) / Fold change /veh LOC100653217 /// NTM (11731650_a_at) / RFU MAPK11 (11762145_a_at) / Fold change /veh MAPK11 (11762145_a_at) / RFU FIZ1 (11724087_x_at) / Fold change /veh FIZ1 (11724087_x_at) / RFU OASL (11726364_x_at) / Fold change /veh OASL (11726364_x_at) / RFU SOX15 (11748057_x_at) / Fold change /veh SOX15 (11748057_x_at) / RFU CD79A (11719716_a_at) / Fold change /veh CD79A (11719716_a_at) / RFU HIST1H1D (11736915_at) / Fold change /veh HIST1H1D (11736915_at) / RFU CASKIN2 (11723855_a_at) / Fold change /veh CASKIN2 (11723855_a_at) / RFU LOC730098 (11760151_x_at) / Fold change /veh LOC730098 (11760151_x_at) / RFU OR4N2 (11742367_at) / Fold change /veh OR4N2 (11742367_at) / RFU PRRT2 (11749266_a_at) / Fold change /veh PRRT2 (11749266_a_at) / RFU SNX32 (11753110_a_at) / Fold change /veh SNX32 (11753110_a_at) / RFU CDHR5 (11726645_a_at) / Fold change /veh CDHR5 (11726645_a_at) / RFU RCAN1 (11760418_a_at) / Fold change /veh RCAN1 (11760418_a_at) / RFU FAM167A (11723789_a_at) / Fold change /veh FAM167A (11723789_a_at) / RFU FAM26E (11764081_at) / Fold change /veh FAM26E (11764081_at) / RFU ISYNA1 (11749810_s_at) / Fold change /veh ISYNA1 (11749810_s_at) / RFU ACY1 (11761880_at) / Fold change /veh ACY1 (11761880_at) / RFU 11764098_at / Fold change /veh 11764098_at / RFU SAMD14 (11745864_x_at) / Fold change /veh SAMD14 (11745864_x_at) / RFU NPB (11741838_a_at) / Fold change /veh NPB (11741838_a_at) / RFU TMPRSS6 (11731388_a_at) / Fold change /veh TMPRSS6 (11731388_a_at) / RFU KRTAP10-2 (11738614_at) / Fold change /veh KRTAP10-2 (11738614_at) / RFU ARHGAP8 /// PRR5-ARHGAP8 (11727945_x_at) / Fold change /veh ARHGAP8 /// PRR5-ARHGAP8 (11727945_x_at) / RFU KRTAP5-7 /// NADSYN1 (11734609_at) / Fold change /veh KRTAP5-7 /// NADSYN1 (11734609_at) / RFU RASL12 (11751679_a_at) / Fold change /veh RASL12 (11751679_a_at) / RFU CDKN2B (11736163_a_at) / Fold change /veh CDKN2B (11736163_a_at) / RFU PRF1 (11729649_at) / Fold change /veh PRF1 (11729649_at) / RFU, ZNF638 /// ZNF638-IT1 / Fold change vs veh, ZNF638 /// ZNF638-IT1 / RFU, PANK3 / Fold change vs veh, PANK3 / RFU, SH3YL1 / Fold change vs veh, SH3YL1 / RFU, ZEB2 / Fold change vs veh, ZEB2 / RFU, NRIP1 / Fold change vs veh, NRIP1 / RFU, PTTG1IP / Fold change vs veh, PTTG1IP / RFU, CAPN2 / Fold change vs veh, CAPN2 / RFU, MED14 / Fold change vs veh, MED14 / RFU, SNORA58 / Fold change vs veh, SNORA58 / RFU, C1orf63 / Fold change vs veh, C1orf63 / RFU, LRRFIP1 / Fold change vs veh, LRRFIP1 / RFU, NDUFAF7 / Fold change vs veh, NDUFAF7 / RFU, SLC12A2 / Fold change vs veh, SLC12A2 / RFU, IBTK / Fold change vs veh, IBTK / RFU, ESF1 / Fold change vs veh, ESF1 / Fold change vs veh, TMEM50B / RFU, TAOK1 / Fold change vs veh, TAOK1 / RFU, ACBD3 / Fold change vs veh, ACBD3 / RFU, TMA16 / Fold change vs veh, TMA16 / RFU, RWDD3 / Fold change vs veh, RWDD3 / RFU, BCAT1 / Fold change vs veh, BCAT1 / RFU, EDEM3 / Fold change vs veh, EDEM3 / RFU, TMEM33 / Fold change vs veh, TMEM33 / RFU, WDR75 / Fold change vs veh, WDR75 / RFU, AHCTF1 / Fold change vs veh, AHCTF1 / RFU, TFRC / Fold change vs veh, TFRC / RFU, ZDHHC17 / Fold change vs veh, ZDHHC17 / RFU, NOM1 / Fold change vs veh, NOM1 / RFU, ARL8B / Fold change vs veh, ARL8B / RFU, ZBTB11 / Fold change vs veh, ZBTB11 / RFU, TAMM41 / Fold change vs veh, TAMM41 / RFU, KIAA1704 /// LOC100996395 / Fold change vs veh, KIAA1704 /// LOC100996395 / RFU, ING1 / Fold change vs veh, ING1 / RFU, TRMT61B / Fold change vs veh, TRMT61B / RFU, FUBP3 / Fold change vs veh, FUBP3 / RFU, TP53 / Fold change vs veh, TP53 / RFU, TNKS2 / Fold change vs veh, TNKS2 / RFU, ZFP14 / Fold change vs veh, ZFP14 / RFU, ACTR2 / Fold change vs veh, ACTR2 / RFU, PPP3R1 / Fold change vs veh, PPP3R1 / RFU, PIK3R1 / Fold change vs veh, PIK3R1 / RFU, HNRNPA1 / Fold change vs veh, HNRNPA1 / RFU, RNF170 / Fold change vs veh, RNF170 / RFU, ZNF28 / Fold change vs veh, ZNF28 / RFU, RNGTT / Fold change vs veh, RNGTT / RFU, OGT / Fold change vs veh, OGT / RFU, BRD1 / Fold change vs veh, BRD1 / RFU, MARS / Fold change vs veh, MARS / RFU, ZNF655 / Fold change vs veh, ZNF655 / RFU, FAHD1 / Fold change vs veh, FAHD1 / RFU, BDP1 / Fold change vs veh, BDP1 / RFU, LRRCC1 / Fold change vs veh, LRRCC1 / RFU, ARID1A / Fold change vs veh, ARID1A / RFU, ZNF146 / Fold change vs veh, ZNF146 / RFU, ZNF330 / Fold change vs veh, ZNF330 / RFU, GPN3 / Fold change vs veh, GPN3 / RFU, C9orf123 / Fold change vs veh, C9orf123 / RFU, N4BP2L2 / Fold change vs veh, N4BP2L2 / RFU, ARFIP1 / Fold change vs veh, ARFIP1 / RFU, FAM179B / Fold change vs veh, FAM179B / RFU, BCL10 / Fold change vs veh, BCL10 / RFU, UHRF1BP1L / Fold change vs veh, UHRF1BP1L / RFU, BET1 / Fold change vs veh, BET1 / RFU, CNOT2 / Fold change vs veh, CNOT2 / RFU, ZNF268 / Fold change vs veh, ZNF268 / Fold change vs veh, ZNF507 / RFU, DGCR2 / Fold change vs veh, DGCR2 / RFU, WDSUB1 / Fold change vs veh, WDSUB1 / Fold change vs veh, HSP90B1 /// MIR3652 / RFU, ADSS / Fold change vs veh, ADSS / RFU, GK / Fold change vs veh, GK / RFU, ZNF148 / Fold change vs veh, ZNF148 / RFU, TAF9 / Fold change vs veh, TAF9 / RFU, SLC1A5 / Fold change vs veh, SLC1A5 / RFU, SLMO2 / Fold change vs veh, SLMO2 / RFU, ABCC4 / Fold change vs veh, ABCC4 / RFU, LOC101060439 /// RAP1B / Fold change vs veh, LOC101060439 /// RAP1B / RFU, RFX7 / Fold change vs veh, RFX7 / RFU, GTPBP10 / Fold change vs veh, GTPBP10 / RFU, CNEP1R1 / Fold change vs veh, CNEP1R1 / RFU, BIVM-ERCC5 /// ERCC5 / Fold change vs veh, BIVM-ERCC5 /// ERCC5 / RFU, ILF3 / Fold change vs veh, ILF3 / RFU 11762660_at / Fold change /veh 11762660_at / RFU VCAN (11757783_s_at) / Fold change /veh VCAN (11757783_s_at) / RFU DDX43 (11728927_at) / Fold change /veh DDX43 (11728927_at) / RFU KRT8 (11758188_x_at) / Fold change /veh KRT8 (11758188_x_at) / RFU NKD1 (11759106_at) / Fold change /veh NKD1 (11759106_at) / RFU SRD5A1 (11742802_a_at) / Fold change /veh SRD5A1 (11742802_a_at) / RFU TPSAB1 /// TPSB2 (11721975_s_at) / Fold change /veh TPSAB1 /// TPSB2 (11721975_s_at) / RFU GSTM3 (11746129_a_at) / Fold change /veh GSTM3 (11746129_a_at) / RFU IL23R (11737362_x_at) / Fold change /veh IL23R (11737362_x_at) / RFU TMEM51 (11727254_a_at) / Fold change /veh TMEM51 (11727254_a_at) / RFU PIWIL2 (11732686_x_at) / Fold change /veh PIWIL2 (11732686_x_at) / RFU ORM1 (11744905_x_at) / Fold change /veh ORM1 (11744905_x_at) / RFU CCDC152 (11743942_at) / Fold change /veh CCDC152 (11743942_at) / RFU ECM1 (11717891_a_at) / Fold change /veh ECM1 (11717891_a_at) / RFU IL23R (11748794_a_at) / Fold change /veh IL23R (11748794_a_at) / RFU TNFAIP8L3 (11732012_x_at) / Fold change /veh TNFAIP8L3 (11732012_x_at) / RFU MBOAT4 (11741988_at) / Fold change /veh MBOAT4 (11741988_at) / RFU 11764193_at / Fold change /veh 11764193_at / RFU TMEM53 (11763286_at) / Fold change /veh TMEM53 (11763286_at) / RFU MAGEB2 (11727129_at) / Fold change /veh MAGEB2 (11727129_at) / RFU TMEM200A (11744735_a_at) / Fold change /veh TMEM200A (11744735_a_at) / RFU CCDC152 (11751479_a_at) / Fold change /veh CCDC152 (11751479_a_at) / RFU FAM211A (11726209_a_at) / Fold change /veh FAM211A (11726209_a_at) / RFU RGS16 (11746705_a_at) / Fold change /veh RGS16 (11746705_a_at) / RFU VCAN (11755009_s_at) / Fold change /veh VCAN (11755009_s_at) / RFU RHOB (11743442_s_at) / Fold change /veh RHOB (11743442_s_at) / RFU RGS16 (11720943_a_at) / Fold change /veh RGS16 (11720943_a_at) / RFU RGS16 (11720944_at) / Fold change /veh RGS16 (11720944_at) / RFU, VPS4B / Fold change vs veh, VPS4B / RFU, CREB1 / Fold change vs veh, CREB1 / RFU, DNAJC13 / Fold change vs veh, DNAJC13 / RFU, GNAQ / Fold change vs veh, GNAQ / RFU, CDK5R1 / Fold change vs veh, CDK5R1 / RFU, ZRANB3 / Fold change vs veh, ZRANB3 / RFU, CUL4A / Fold change vs veh, CUL4A / RFU, CCNY / Fold change vs veh, CCNY / RFU, UFL1 / Fold change vs veh, UFL1 / RFU, COG3 / Fold change vs veh, COG3 / RFU, DIAPH2 / Fold change vs veh, DIAPH2 / RFU, SKA2 / Fold change vs veh, SKA2 / RFU, AFF3 / Fold change vs veh, AFF3 / RFU, LMF1 / Fold change vs veh, LMF1 / RFU, IPO11 / Fold change vs veh, IPO11 / RFU, DFFB / Fold change vs veh, DFFB / RFU, FOXP1 / Fold change vs veh, FOXP1 / RFU, CARD8 / Fold change vs veh, CARD8 / RFU, STRN3 / Fold change vs veh, STRN3 / RFU, ADK / Fold change vs veh, ADK / RFU, RASSF2 / Fold change vs veh, RASSF2 / RFU, WIPF1 / Fold change vs veh, WIPF1 / RFU, LARP1B / Fold change vs veh, LARP1B / RFU, RASA1 / Fold change vs veh, RASA1 / RFU, RB1 / Fold change vs veh, RB1 / RFU, PPFIA1 / Fold change vs veh, PPFIA1 / RFU, MAT2A / Fold change vs veh, MAT2A / RFU, CCT5 / Fold change vs veh, CCT5 / RFU, WDR92 / Fold change vs veh, WDR92 / RFU, CUX1 / Fold change vs veh, CUX1 / RFU, TTC7A / Fold change vs veh, TTC7A / RFU, TMEM135 / Fold change vs veh, TMEM135 / RFU, DEPTOR / Fold change vs veh, DEPTOR / RFU, CPM / Fold change vs veh, CPM / RFU, DNAJB6 / Fold change vs veh, DNAJB6 / RFU, CACNA2D3 / Fold change vs veh, CACNA2D3 / RFU, DTX4 / Fold change vs veh, DTX4 / RFU, TFCP2 / Fold change vs veh, TFCP2 / RFU, GMCL1 /// GMCL1P1 / Fold change vs veh, GMCL1 /// GMCL1P1 / RFU, AEBP2 / Fold change vs veh, AEBP2 / RFU, SNHG1 /// SNORD22 /// SNORD25 /// SNORD26 /// SNORD27 /// SNORD28 /// SNORD29 /// SNORD31 / Fold change vs veh, SNHG1 /// SNORD22 /// SNORD25 /// SNORD26 /// SNORD27 /// SNORD28 /// SNORD29 /// SNORD31 / Fold change (Aza/veh), C12orf56 (ProbeSet 11735607_a_at) / Fold change (ACY-1035/veh), C12orf56 (ProbeSet 11735607_a_at) / Fold change (Aza/veh), FGFR1OP (ProbeSet 11751329_s_at) / Fold change (ACY-1035/veh), FGFR1OP (ProbeSet 11751329_s_at) / Fold change (Aza/veh), VPS36 (ProbeSet 11739960_a_at) / Fold change (ACY-1035/veh), VPS36 (ProbeSet 11739960_a_at) / RFU SYPL1 (11715823_x_at) / Fold change /veh SYPL1 (11715823_x_at) / RFU IGFBP7 (11715501_s_at) / Fold change /veh IGFBP7 (11715501_s_at) / RFU REEP3 (11722064_at) / Fold change /veh REEP3 (11722064_at) / RFU IGLL1 (11728026_x_at) / Fold change /veh IGLL1 (11728026_x_at): dose or concentration left out as unconfirmed. To be noted: ProbeSet 11755436_x_at; LIST B.

Regarding `Nc1ccc(-c2cccs2)cc1NC(=O)c1ccc2c(c1)cc(C1CC1)n2CCN1CCOCC1` [ACY-1035], the “Fold change vs veh, ARID1A” value is listed as 0.98.

Values taken from PMC5218480 (PLoS ONE, 2017).
